From patent US7531558B2, “Carboxamide derivatives” (Glaxo Group Limited, priority 2003, dated 2009)

Tested on: FCA-induced mechanical hyperalgesia
Test: FCA-induced hyperalgesia in the guinea pig (paw pressure, Randall-Sellito)
Assay type: in vivo
Details: male Dunkin Hartley guinea-pigs; oral 3, 10, 30 mg/kg 24 h after intraplantar FCA; reading 1 hour after drug administration
Protocol: 100 μl of 1 mg/ml FCA was injected intraplantar into the left paw of 4 groups of 8 male Dunkin Hartley guinea-pigs (batch: 6282434, average weight 340 g). 24 hours later compounds were administered orally at 0 (vehicle), 3, 10 30 mg/kg with vehicle as 1% methylcellulose and dosing volume being 2 ml/kg and dosing straight into the stomach. The methylcellulose was added gradually to the compound into the pestle and mortar and ground together.
Behavioural readouts of mechanical hyperalgesia were obtained before FCA administration (naïve reading), after FCA but before drug administration (predose reading) and 1 hour after drug administration. The readout used was paw pressure (Randall-Sellito) and the end point was paw withdrawal. The paw pressure equipment also had one silver disc placed on the point to increase the markings by a factor of 2.

Structure (SMILES)	activity in FCA-induced mechanical hyperalgesia (paw withdrawal)
Cc1nc2cc(NC(=O)c3ccc(-c4ccc(F)cc4)nc3C)ccc2s1 [Example 1, 6-(4-Fluorophenyl)-2-methyl-N-(2-methylbenzothiazol-5-yl)nicotinamide]	active
Cc1nc2cc(NC(=O)c3ccc(-c4ccc(F)cc4F)nc3C)ccc2s1 [Example 2, 6-(2,4-Difluorophenyl)-2-methyl-N-(2-methylbenzothiazol-5-yl)-nicotinamide]	active
Cc1nc2cc(NC(=O)c3ccc(-c4ccc(F)c(F)c4)nc3C)ccc2s1 [Example 3, 6-(3,4-Difluorophenyl)-2-methyl-N-(2-methylbenzothiazol-5-yl)-nicotinamide]	active
Cc1nc(-c2ccc(F)cc2)ccc1C(=O)Nc1ccc2scnc2c1 [Example 4, N-Benzothiazol-5-yl-6-(4-fluorophenyl)-2-methyl-nicotinamide]	active
Cc1nc2cc(NC(=O)c3ccc(-c4cccc(F)c4F)nc3C)ccc2s1 [Example 5, 6-(2,3-Difluorophenyl)-2-methyl-N-(2-methylbenzothiazol-5-yl)-nicotinamide]	active
Cc1nc2cc(NC(=O)N3CCN(c4ccccc4F)CC3)ccc2s1 [Example 16, 4-(2-Fluorophenyl)-N-(2-methylbenzothiazol-5-yl)-1-piperazine carboxamide]	active
